# Laboratory results published in ChEMBL document CHEMBL1201862, “PubChem BioAssay data set” (2004).
# Values joined by “and” are separate entries in the source; they are usually repeats but may differ in a detail not shown here. Equal values may be shown once.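 Dose response: 5 concentrations. Exposure: 48 h. Format: 96-well plates. Endpoint: linear interpolation; highest concentration if not reached. GI50 marks 50% less growth.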 Active and inactive are the calls of the source. Rule as the data show it: active = GI50 up to about 1.1 µM and inactive = higher.
# Experiments:
# Assay in all cases: DTP human tumour cell line panel, 48 h
# [1] = system: 786-0
# [2] = system: A549
# [3] = system: ACHN
# [4] = system: CAKI-1
# [5] = system: CCRF-CEM
# [6] = system: COLO 205
# [7] = system: DU-145
# [8] = system: HCC 2998
# [9] = system: HCT-116
# [10] = system: HCT-15
# [11] = system: HL-60
# [12] = system: HOP-62
# [13] = system: HOP-92
# [14] = system: HT-29
# [15] = system: Hs-578T
# [16] = system: IGROV-1
# [17] = system: K562
# [18] = system: KM12
# [19] = system: LOX IMVI
# [20] = system: M14
# [21] = system: MCF7
# [22] = system: MDA-MB-231
# [23] = system: MDA-MB-435
# [24] = system: MOLT-4
# [25] = system: NCI-H226
# [26] = system: NCI-H23
# [27] = system: NCI-H460
# [28] = system: NCI-H522
# [29] = system: NCI/ADR-RES
# [30] = system: OVCAR-3
# [31] = system: OVCAR-4
# [32] = system: OVCAR-5
# [33] = system: OVCAR-8
# [34] = system: PC-3
# [35] = system: RPMI-8226
# [36] = system: SF-268
# [37] = system: SF-295
# [38] = system: SF-539
# [39] = system: SK-MEL-28
# [40] = system: SK-MEL-2
# [41] = system: SK-MEL-5
# [42] = system: SK-OV-3
# [43] = system: SN12C
# [44] = system: SNB-19
# [45] = system: SNB-75
# [46] = system: SR
# [47] = system: SW-620
# [48] = system: T47D
# [49] = system: TK-10
# [50] = system: U-251
# [51] = system: UACC-257
# [52] = system: UACC-62
# [53] = system: UO-31
# [54] = system: A498
# [55] = system: EKVX
# [56] = system: MDA-N
# [57] = system: RXF 393
# [58] = system: Malme-3M
structure (smiles),measurement,setting,value
CC1(C)N=C(N)N=C(N)N1c1ccc(OCC(=O)Nc2cccc(S(=O)(=O)F)c2)c(Cl)c1,GI50,[1],4.9 µM (inactive)
same,GI50,[2],3.52 µM (inactive)
same,GI50,[3],30 µM (inactive)
same,GI50,[4],35.8 µM (inactive)
same,GI50,[5],5.37 µM (inactive)
same,GI50,[6],15.9 µM (inactive)
same,GI50,[7],> 25.1 µM (inactive)
same,GI50,[8],19.1 µM (inactive)
same,GI50,[9],12.6 µM (inactive)
same,GI50,[10],9.75 µM
same,GI50,[11],3.75 µM (inactive)
same,GI50,[12],31 µM (inactive)
same,GI50,[13],2.25 µM (inactive)
same,GI50,[14],5.16 µM (inactive)
same,GI50,[15],12.2 µM (inactive)
same,GI50,[16],7 µM (inactive)
same,GI50,[17],1.66 µM (inactive)
same,GI50,[18],17.7 µM (inactive)
same,GI50,[19],4.9 µM (inactive)
same,GI50,[20],13.9 µM (inactive)
same,GI50,[21],6.03 µM (inactive)
same,GI50,[22],> 31.6 µM (inactive)
same,GI50,[23],4.52 µM (inactive)
same,GI50,[24],16.3 µM (inactive)
same,GI50,[25],1.8 µM (inactive)
same,GI50,[26],4.95 µM (inactive)
same,GI50,[27],5.48 µM (inactive)
same,GI50,[28],51.8 µM (inactive)
same,GI50,[29],59.6 µM (inactive)
same,GI50,[30],18.5 µM (inactive)
same,GI50,[31],> 100 µM (inactive)
same,GI50,[32],7.91 µM (inactive)
same,GI50,[33],5.82 µM (inactive)
same,GI50,[34],1.54 µM (inactive)
same,GI50,[35],> 33.3 µM (inactive)
same,GI50,[36],4.78 µM (inactive)
same,GI50,[37],10.2 µM (inactive)
same,GI50,[38],13.2 µM (inactive)
same,GI50,[39],> 70 µM (inactive)
same,GI50,[40],> 100 µM (inactive)
same,GI50,[41],3.56 µM (inactive)
same,GI50,[42],> 81.1 µM (inactive)
same,GI50,[43],8 µM (inactive)
same,GI50,[44],7.8 µM (inactive)
same,GI50,[45],54.7 µM (inactive)
same,GI50,[46],2.85 µM (inactive)
same,GI50,[47],3.71 µM (inactive)
same,GI50,[48],27.2 µM (inactive)
same,GI50,[49],7.24 µM (inactive)
same,GI50,[50],13.6 µM (inactive)
same,GI50,[51],2.98 µM (inactive)
same,GI50,[52],0.676 µM (active)
same,GI50,[53],78.5 µM (inactive)
CC(=O)OCC1OC(Sc2nc(-c3ccc(Cl)cc3)c(C#N)c(=O)n2C2OC(COC(C)=O)C(OC(C)=O)C(OC(C)=O)C2OC(C)=O)C(OC(C)=O)C(OC(C)=O)C1OC(C)=O (centres undefined),GI50,[11],3.82 µM (inactive)
same,GI50,[24],50.4 µM (inactive) and > 26.4 µM (inactive)
same,GI50,[31],3.45 µM (inactive)
same,GI50,[35],35.9 µM (inactive)
same,GI50,[46],30.3 µM (inactive)
CC[C@H](CCCCC1CC[C@@H]2CC(=O)C[C@H]12)OC (some centres undefined),GI50,[54],> 100 µM (inactive)
same,GI50,[2],> 100 µM (inactive)
same,GI50,[7],> 100 µM (inactive)
same,GI50,[55],> 100 µM (inactive)
same,GI50,[10],> 100 µM
same,GI50,[21],> 100 µM (inactive)
same,GI50,[56],> 100 µM (inactive)
same,GI50,[30],> 100 µM (inactive)
same,GI50,[32],> 100 µM (inactive)
same,GI50,[34],> 100 µM (inactive)
same,GI50,[57],> 100 µM (inactive)
same,GI50,[36],> 100 µM (inactive)
same,GI50,[37],> 100 µM (inactive)
same,GI50,[39],> 100 µM (inactive)
same,GI50,[43],> 100 µM (inactive)
same,GI50,[47],> 100 µM (inactive)
same,GI50,[50],> 100 µM (inactive)
same,GI50,[53],93.8 µM (inactive)
CNC1=C(C)C(=O)C2=C(C1=O)C(COC(N)=O)C1(OC)C3NC3CN21 (centres undefined),GI50,[54],0.632 µM (active)
same,GI50,[2],0.106 µM (active)
same,GI50,[3],0.16 µM (active)
same,GI50,[4],0.0653 µM (active)
same,GI50,[5],4.19 µM (inactive)
same,GI50,[6],0.187 µM (active)
same,GI50,[55],22 µM (inactive)
same,GI50,[8],0.313 µM (active)
same,GI50,[9],0.209 µM (active)
same,GI50,[10],0.391 µM
same,GI50,[11],2.02 µM (inactive)
same,GI50,[12],0.092 µM (active)
same,GI50,[13],> 10 µM (inactive)
same,GI50,[14],0.207 µM (active)
same,GI50,[15],2.49 µM (inactive)
same,GI50,[16],3.53 µM (inactive)
same,GI50,[17],4.07 µM (inactive)
same,GI50,[18],0.413 µM (active)
same,GI50,[19],0.152 µM (active)
same,GI50,[20],0.22 µM (active)
same,GI50,[21],0.107 µM (active)
same,GI50,[23],1.6 µM (inactive)
same,GI50,[56],0.574 µM (active)
same,GI50,[24],3.68 µM (inactive)
same,GI50,[58],0.571 µM (active)
same,GI50,[25],0.543 µM (active)
same,GI50,[26],0.105 µM (active)
same,GI50,[27],< 0.01 µM (active)
same,GI50,[28],0.427 µM (active)
same,GI50,[30],3.36 µM (inactive)
same,GI50,[31],2.95 µM (inactive)
same,GI50,[32],4.91 µM (inactive)
same,GI50,[33],0.644 µM (active)
same,GI50,[34],2.94 µM (inactive)
same,GI50,[35],3.13 µM (inactive)
same,GI50,[36],0.783 µM (active)
same,GI50,[37],0.0853 µM (active)
same,GI50,[38],0.183 µM (active)
same,GI50,[39],1.29 µM (inactive)
same,GI50,[40],1.15 µM (inactive)
same,GI50,[41],0.0445 µM (active)
same,GI50,[42],1.27 µM (inactive)
same,GI50,[44],0.268 µM (active)
same,GI50,[45],0.141 µM (active)
same,GI50,[46],0.0462 µM (active)
same,GI50,[47],0.385 µM (active)
same,GI50,[48],1.5 µM (inactive)
same,GI50,[49],3.1 µM (inactive)
same,GI50,[50],0.883 µM (active)
same,GI50,[51],0.951 µM (active)
same,GI50,[52],0.221 µM (active)
same,GI50,[53],2.19 µM (inactive)
OC(c1cc2ccccc2o1)c1cc2ccccc2s1 (centres undefined),GI50,[1],> 10 µM (inactive)
same,GI50,[2],> 10 µM (inactive)
same,GI50,[3],> 10 µM (inactive)
same,GI50,[4],> 10 µM (inactive)
same,GI50,[5],> 10 µM (inactive)
same,GI50,[6],> 10 µM (inactive)
same,GI50,[7],> 10 µM (inactive)
same,GI50,[55],7.23 µM (inactive)
same,GI50,[8],> 10 µM (inactive)
same,GI50,[9],> 10 µM (inactive)
same,GI50,[10],> 10 µM
same,GI50,[11],> 10 µM (inactive)
same,GI50,[12],> 10 µM (inactive)
same,GI50,[13],> 10 µM (inactive)
same,GI50,[14],> 10 µM (inactive)
same,GI50,[15],9.53 µM (inactive)
same,GI50,[16],> 10 µM (inactive)
same,GI50,[17],4.57 µM (inactive)
same,GI50,[18],7.23 µM (inactive)
same,GI50,[19],> 10 µM (inactive)
same,GI50,[20],> 10 µM (inactive)
same,GI50,[21],9.44 µM (inactive)
same,GI50,[22],> 10 µM (inactive)
same,GI50,[23],3.78 µM (inactive)
same,GI50,[56],3.94 µM (inactive)
same,GI50,[24],> 10 µM (inactive)
same,GI50,[25],> 10 µM (inactive)
same,GI50,[26],> 10 µM (inactive)
same,GI50,[27],> 10 µM (inactive)
same,GI50,[28],> 10 µM (inactive)
same,GI50,[29],> 10 µM (inactive)
same,GI50,[30],> 10 µM (inactive)
same,GI50,[31],> 10 µM (inactive)
same,GI50,[32],> 10 µM (inactive)
same,GI50,[33],> 10 µM (inactive)
same,GI50,[34],8.57 µM (inactive)
same,GI50,[35],> 10 µM (inactive)
same,GI50,[57],> 10 µM (inactive)
same,GI50,[36],> 10 µM (inactive)
same,GI50,[37],> 10 µM (inactive)
same,GI50,[38],> 10 µM (inactive)
same,GI50,[39],> 10 µM (inactive)
same,GI50,[40],> 10 µM (inactive)
same,GI50,[41],> 10 µM (inactive)
same,GI50,[42],> 10 µM (inactive)
same,GI50,[43],> 10 µM (inactive)
same,GI50,[44],> 10 µM (inactive)
same,GI50,[45],> 10 µM (inactive)
same,GI50,[46],> 10 µM (inactive)
same,GI50,[47],> 10 µM (inactive)
same,GI50,[48],> 10 µM (inactive)
same,GI50,[49],> 10 µM (inactive)
same,GI50,[50],> 10 µM (inactive)
same,GI50,[51],> 10 µM (inactive)
same,GI50,[52],> 10 µM (inactive)
same,GI50,[53],> 10 µM (inactive)
